# Measured values taken from patent US20230111310A1, “CARBOXYLIC ACID DERIVATIVE-SUBSTITUTED IMINO ARYL COMPOUND, PREPARATION METHOD THEREFOR, HERBICIDAL COMPOSITION AND USE THEREOF” (Qingdao Kingagroot Chemical Compound Co., Ltd., priority 2020, published 2023).
# What was measured:
# Test in all cases: Weeding effect in post-emergence stage
# Assay type in all cases: in vivo
# Echinochloa crusgalli = conditions: for Weeding effect in post-emergence stage, Echinochloa crusgalli: level of fresh weight growth control rate; for Weeding effect in post-emergence stage, Echinochloa crusgalli (level): fresh weight control rate level
# Method in brief: (§1)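 Compound, dissolved in acetone and diluted in water with Tween 80 plus methyl oleate EC (1.5 liter/ha), is sprayed onto 2-3 leaf potted plants. Rates span 7.5–500 g/ha. After 3 weeks of greenhouse culture, weeding effect is counted as the mean of triplicates.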
# Abutilon theophrasti = conditions: for Weeding effect in post-emergence stage, Abutilon theophrasti: level of fresh weight growth control rate; for Weeding effect in post-emergence stage, Abutilon theophrasti (level): fresh weight control rate level
# Method in brief: as §1
# Eleusine indica = conditions: for Weeding effect in post-emergence stage, Eleusine indica: level of fresh weight growth control rate; for Weeding effect in post-emergence stage, Eleusine indica (level): fresh weight control rate level
# Method in brief: as §1
# Setaria viridis = conditions: for Weeding effect in post-emergence stage, Setaria viridis: level of fresh weight growth control rate; for Weeding effect in post-emergence stage, Setaria viridis (level): fresh weight control rate level
# Method in brief: as §1
# Alopecurus japonicus = conditions: for Weeding effect in post-emergence stage, Alopecurus japonicus: level of fresh weight growth control rate; for Weeding effect in post-emergence stage, Alopecurus japonicus (level): fresh weight control rate level
# Method in brief: as §1
# Digitaria sanguinalis = conditions: for Weeding effect in post-emergence stage, Digitaria sanguinalis: level of fresh weight growth control rate; for Weeding effect in post-emergence stage, Digitaria sanguinalis (level): fresh weight control rate level
# Method in brief: as §1
SMILES,"Weeding effect in post-emergence stage, Echinochloa crusgalli (Echinochloa crusgalli; Dose 15 g/ha)","Weeding effect in post-emergence stage, Abutilon theophrasti (Abutilon theophrasti; Dose 15 g/ha)","Weeding effect in post-emergence stage, Eleusine indica (Eleusine indica; Dose 15 g/ha)","Weeding effect in post-emergence stage, Setaria viridis (Setaria viridis; Dose 15 g/ha)","Weeding effect in post-emergence stage, Alopecurus japonicus (Alopecurus japonicus; Dose 15 g/ha)","Weeding effect in post-emergence stage, Digitaria sanguinalis (Digitaria sanguinalis; Dose 15 g/ha)","Weeding effect in post-emergence stage, Echinochloa crusgalli (level) (Echinochloa crusgalli; Dose 15 g/ha)","Weeding effect in post-emergence stage, Abutilon theophrasti (level) (Abutilon theophrasti; Dose 15 g/ha)","Weeding effect in post-emergence stage, Eleusine indica (level) (Eleusine indica; Dose 15 g/ha)","Weeding effect in post-emergence stage, Setaria viridis (level) (Setaria viridis; Dose 15 g/ha)","Weeding effect in post-emergence stage, Alopecurus japonicus (level) (Alopecurus japonicus; Dose 15 g/ha)","Weeding effect in post-emergence stage, Digitaria sanguinalis (level) (Digitaria sanguinalis; Dose 15 g/ha)",further results
CC(O/N=C/c1cc(-n2c(=O)cc(C(F)(F)F)n(C)c2=O)c(F)cc1Cl)C(=O)OCC(F)(F)F (racemic) [Compound 218],5 (Level 5: growth control rate is above 85%),5 (Level 5: growth control rate is above 85%),5 (Level 5: growth control rate is above 85%),5 (Level 5: growth control rate is above 85%),5 (Level 5: growth control rate is above 85%),5 (Level 5: growth control rate is above 85%),,,,,,,
C[C@@H](O/N=C/c1cc(-n2c(=O)cc(C(F)(F)F)n(C)c2=O)c(F)cc1Cl)C(=O)OCCC1OCCO1 [498(R)],,,,,,,5 (Level 5: growth control rate is above 85%),5 (Level 5: growth control rate is above 85%),5 (Level 5: growth control rate is above 85%),5 (Level 5: growth control rate is above 85%),5 (Level 5: growth control rate is above 85%),5 (Level 5: growth control rate is above 85%),
COC(=O)C(C)(C)O/N=C/c1cc(-n2c(=O)n(C)c(=S)n(C)c2=O)c(F)cc1Cl [Compound 189],4 (Level 4: growth control rate is greater than or equal to 60% and less than 85%),5 (Level 5: growth control rate is above 85%),5 (Level 5: growth control rate is above 85%),5 (Level 5: growth control rate is above 85%),4 (Level 4: growth control rate is greater than or equal to 60% and less than 85%),4 (Level 4: growth control rate is greater than or equal to 60% and less than 85%),,,,,,,
C[C@@H](O/N=C/c1cc(-n2c(=O)cc(C(F)(F)F)n(C)c2=O)c(F)cc1Cl)C(=O)OCc1ccc(Cl)nc1 [495(R)],,,,,,,5 (Level 5: growth control rate is above 85%),5 (Level 5: growth control rate is above 85%),5 (Level 5: growth control rate is above 85%),5 (Level 5: growth control rate is above 85%),5 (Level 5: growth control rate is above 85%),5 (Level 5: growth control rate is above 85%),
CCCCOCCOC(=O)[C@@H](C)O/N=C/c1cc(-n2c(=O)cc(C(F)(F)F)n(C)c2=O)c(F)cc1Cl [232(R)],5 (Level 5: growth control rate is above 85%),5 (Level 5: growth control rate is above 85%),5 (Level 5: growth control rate is above 85%),5 (Level 5: growth control rate is above 85%),5 (Level 5: growth control rate is above 85%),5 (Level 5: growth control rate is above 85%),,,,,,,
C[C@@H](O/N=C/c1cc(-n2c(=O)cc(C(F)(F)F)n(C)c2=O)c(F)cc1Cl)C(=O)OCCCC#N [446(R)],,,,,,,5 (Level 5: growth control rate is above 85%),5 (Level 5: growth control rate is above 85%),5 (Level 5: growth control rate is above 85%),5 (Level 5: growth control rate is above 85%),5 (Level 5: growth control rate is above 85%),5 (Level 5: growth control rate is above 85%),
CC(O/N=C/c1cc(-n2c(=O)cc(C(F)(F)F)n(C)c2=O)c(F)cc1Cl)C(=O)OCCF (racemic) [Compound 216],5 (Level 5: growth control rate is above 85%),5 (Level 5: growth control rate is above 85%),5 (Level 5: growth control rate is above 85%),5 (Level 5: growth control rate is above 85%),4 (Level 4: growth control rate is greater than or equal to 60% and less than 85%),5 (Level 5: growth control rate is above 85%),,,,,,,
COC(=O)[C@@H](C)O/N=C/c1cc(-n2c(=O)cc(C(F)(F)F)n(C)c2=S)c(F)cc1Cl [347(R)],,,,,,,,,,,,,"Weeding effect in post-emergence stage, Echinochloa crusgalli (Echinochloa crusgalli; Dose 30 g/ha): 5 (Level 5: growth control rate is above 85%); Weeding effect in post-emergence stage, Abutilon theophrasti (Abutilon theophrasti; Dose 30 g/ha): 5 (Level 5: growth control rate is above 85%); Weeding effect in post-emergence stage, Eleusine indica (Eleusine indica; Dose 30 g/ha): 5 (Level 5: growth control rate is above 85%); Weeding effect in post-emergence stage, Setaria viridis (Setaria viridis; Dose 30 g/ha): 5 (Level 5: growth control rate is above 85%); Weeding effect in post-emergence stage, Alopecurus japonicus (Alopecurus japonicus; Dose 30 g/ha): 5 (Level 5: growth control rate is above 85%); Weeding effect in post-emergence stage, Digitaria sanguinalis (Digitaria sanguinalis; Dose 30 g/ha): 5 (Level 5: growth control rate is above 85%)"
COC(=O)[C@@H](C)N/N=C/c1cc(-n2c(=O)cc(C(F)(F)F)n(C)c2=O)c(F)cc1Cl [919(R)],,,,,,,,,,,,,"Weeding effect in post-emergence stage, Echinochloa crusgalli (level) (Echinochloa crusgalli; Dose 30 g/ha): 5 (Level 5: growth control rate is above 85%); Weeding effect in post-emergence stage, Abutilon theophrasti (level) (Abutilon theophrasti; Dose 30 g/ha): 5 (Level 5: growth control rate is above 85%); Weeding effect in post-emergence stage, Eleusine indica (level) (Eleusine indica; Dose 30 g/ha): 5 (Level 5: growth control rate is above 85%); Weeding effect in post-emergence stage, Setaria viridis (level) (Setaria viridis; Dose 30 g/ha): 5 (Level 5: growth control rate is above 85%); Weeding effect in post-emergence stage, Alopecurus japonicus (level) (Alopecurus japonicus; Dose 30 g/ha): 5 (Level 5: growth control rate is above 85%); Weeding effect in post-emergence stage, Digitaria sanguinalis (level) (Digitaria sanguinalis; Dose 30 g/ha): 5 (Level 5: growth control rate is above 85%)"
COC(=O)[C@@H](CC(C)C)O/N=C/c1cc(-n2c(=O)cc(C(F)(F)F)n(C)c2=O)c(F)cc1Cl [455(R)],,,,,,,5 (Level 5: growth control rate is above 85%),5 (Level 5: growth control rate is above 85%),5 (Level 5: growth control rate is above 85%),5 (Level 5: growth control rate is above 85%),5 (Level 5: growth control rate is above 85%),5 (Level 5: growth control rate is above 85%),
COC(=O)C(C)(C)OC(=O)[C@@H](C)O/N=C/c1cc(-n2c(=O)cc(C(F)(F)F)n(C)c2=O)c(F)cc1Cl [243(R)],5 (Level 5: growth control rate is above 85%),5 (Level 5: growth control rate is above 85%),5 (Level 5: growth control rate is above 85%),5 (Level 5: growth control rate is above 85%),5 (Level 5: growth control rate is above 85%),5 (Level 5: growth control rate is above 85%),,,,,,,
COC(=O)[C@@H](C)O/N=C/c1cc(-n2c(=S)cc(C(F)(F)F)n(C)c2=S)c(F)cc1C#N [393(R)],,,,,,,,,,,,,"Weeding effect in post-emergence stage, Echinochloa crusgalli (level) (Echinochloa crusgalli; Dose 60 g/ha): 5 (Level 5: growth control rate is above 85%); Weeding effect in post-emergence stage, Abutilon theophrasti (level) (Abutilon theophrasti; Dose 60 g/ha): 5 (Level 5: growth control rate is above 85%); Weeding effect in post-emergence stage, Eleusine indica (level) (Eleusine indica; Dose 60 g/ha): 5 (Level 5: growth control rate is above 85%); Weeding effect in post-emergence stage, Setaria viridis (level) (Setaria viridis; Dose 60 g/ha): 5 (Level 5: growth control rate is above 85%); Weeding effect in post-emergence stage, Alopecurus japonicus (level) (Alopecurus japonicus; Dose 60 g/ha): 5 (Level 5: growth control rate is above 85%); Weeding effect in post-emergence stage, Digitaria sanguinalis (level) (Digitaria sanguinalis; Dose 60 g/ha): 5 (Level 5: growth control rate is above 85%)"
COC(=O)C(O/N=C/c1cc(-n2c(=O)cc(C(F)(F)F)n(C)c2=O)c(F)cc1Cl)C1CC1 (racemic) [Compound 456],,,,,,,,,,,,,"Weeding effect in post-emergence stage, Echinochloa crusgalli (level) (Echinochloa crusgalli; Dose 30 g/ha): 5 (Level 5: growth control rate is above 85%); Weeding effect in post-emergence stage, Abutilon theophrasti (level) (Abutilon theophrasti; Dose 30 g/ha): 5 (Level 5: growth control rate is above 85%); Weeding effect in post-emergence stage, Eleusine indica (level) (Eleusine indica; Dose 30 g/ha): 5 (Level 5: growth control rate is above 85%); Weeding effect in post-emergence stage, Setaria viridis (level) (Setaria viridis; Dose 30 g/ha): 5 (Level 5: growth control rate is above 85%); Weeding effect in post-emergence stage, Alopecurus japonicus (level) (Alopecurus japonicus; Dose 30 g/ha): 5 (Level 5: growth control rate is above 85%); Weeding effect in post-emergence stage, Digitaria sanguinalis (level) (Digitaria sanguinalis; Dose 30 g/ha): 5 (Level 5: growth control rate is above 85%)"
COC(=O)C(Cc1ccccc1)O/N=C/c1cc(-n2c(=O)cc(C(F)(F)F)n(C)c2=O)c(F)cc1Cl (racemic) [Compound 469],,,,,,,5 (Level 5: growth control rate is above 85%),5 (Level 5: growth control rate is above 85%),5 (Level 5: growth control rate is above 85%),5 (Level 5: growth control rate is above 85%),5 (Level 5: growth control rate is above 85%),5 (Level 5: growth control rate is above 85%),
